# What was measured:
# [1] = system: normal human primary dermal fibroblasts; test: MTS cell viability assay, normal fibroblasts; format: cell-based; details: 48 h of exposure
# Protocol: (§1) The in vitro cytotoxic potential of Cu(II) complexes in tumor and healthy cells was assessed using the MTS assay, a colorimetric method that allows the quantification of viable cells in culture.[46]
# Cell culture and maintenance
# (§2) The cancer cell lines HCT116 (colorectal carcinoma) and A2780 (ovarian carcinoma) were obtained
# (§3) from the American Type Culture Collection (ATCC®, Manassas, VA, USA), as well as the normal
# human primary dermal fibroblasts.
# (§4) Apart from the A2780 cell line, which was cultured in Roswell Park Memorial Institute (RPMI)
# (§5) medium, all cells were cultured in Dulbecco’s modified Eagle medium (DMEM). Both media were
# (§6) supplemented with 10% (v/v) fetal bovine serum (FBS) and 1% (v/v) of a Pen/Strep
# (§7) (Penicillin/Streptomycin) solution. To maintain the resistant phenotype of the HCT116DoxR cell line,
# (§8) the medium was additionally supplemented with 3.6 μM Dox4. All media and supplements were
# (§9) purchased from Thermo Fischer Scientific (Waltham, MA, USA).
# (§10) Cells were maintained in 25 cm2 T-flasks (T25) in a humidified atmosphere at 37 °C and 5% (v/v) CO
# (§11) (SANYO CO2 Incubator, Electric Biomedical Co., Osaka, Japan).
# (§12) The effect of Cu(II) complexes on cell viability was studied in HCT116, HCT116DoxR, and A2780
# (§13) cancer cell lines and in normal human primary fibroblasts. Cells were seeded in a density of 0.75×105
# (§14) cells/mL into 96-well plates and incubated in a humidified atmosphere at 37 °C and 5% (v/v) CO2 for
# (§15) 24 h. After incubation, complexes were weighed, immediately solubilized in 100% (v/v) DMSO and
# (§16) diluted for the final concentration with cell culture medium. The medium in each well was replaced by
# (§17) a solution of fresh medium containing each Cu(II) complex (concentrations ranging from 0.01 μM to
# (§18) Following a second incubation period of 48 h in the same conditions, the supernatant of each well was
# (§19) replaced by a solution containing MTS reagent (3-(4,5-dimethylthiazol-2-yl)-5-(3-
# (§20) Non-Radioactive Cell Proliferation Assay Kit (Promega, Madison, WI, EUA) for a 30 minutes
# (§21) incubation. The percentage of viable cells was indirectly determined by the spectrophotometric
# (§22) quantification at 490 nm in a microplate reader, Tecan Infinite M200 (Tecan, Männedorf, Switzerland)
# (§23) of formazan production, resultant from the reduction of the MTS reagent by mitochondrial
# [2] = system: HCT116DoxR (Dox-resistant colorectal carcinoma cell line); test: MTS cell viability assay, 2D culture, HCT116DoxR; details: read-out: IC50 (μM) HCT116DoxR, 48 h of exposure
# Protocol: as §1
# In this regard, cell viability was performed for each of the ligands on HCT116DoxR and fibroblasts.
# Cell culture and maintenance
# as §2, §3
# human primary dermal fibroblasts.
# as §4, §5, §6, §7, §8, §9, §10, §11, §12, §13, §14, §15, §16, §17
# (§24) as negative and positive controls, respectively.
# as §18, §19
# (§25) carboxymethoxyphenyl)-2-(4-sulfophenyl)-2H-tetrazolium) provided by the CellTiter 96® AQueous
# as §20, §21, §22, §23
# (§26) dehydrogenases. Since these enzymes are only active in viable cells, the absorbance value measured is
# (§27) directly proportional to the percentage of viable cells in culture5.
# [3] = system: HCT116 (colorectal carcinoma cell line); test: MTS cell viability assay, 2D culture, HCT116; format: cell-based, human; details: 48 h of exposure
# Protocol: as §1
# Cell culture and maintenance
# as §2, §3
# human primary dermal fibroblasts.
# as §4, §5, §6, §7, §8, §9, §10, §11, §12, §13, §14, §15, §16, §17, §24, §18, §19, §25, §20, §21, §22, §23, §26, §27
# (§28) By analysing the cell viability as a function of log10(concentration) using Prism 8 (GraphPad
# (§29) in cell viability) of each complex in the respective cell line at 48 h. The selective index (SI) for each
# (§30) complex was also determined by dividing the IC50 of human fibroblasts by the respective IC50 in each
# (§31) cancer cell line (allowing us to understand how much active a complex is in tumor versus normal cell).
# [4] = system: A2780 (ovarian carcinoma cell line); test: MTS cell viability assay, 2D culture, A2780; format: cell-based, human; details: 48 h of exposure
# Protocol: as §1
# Cell culture and maintenance
# as §2, §3
# human primary dermal fibroblasts.
# as §4, §5, §6, §7, §8, §9, §10, §11, §12, §13, §14, §15, §16, §17, §24, §18, §19, §25, §20, §21, §22, §23, §26, §27, §28, §29, §30, §31
# [5] = system: HCT116DoxR cells; test: Cell cycle progression (PI, flow cytometry); details: for cell cycle progression after 12 h / cell cycle progression after 18 h: IC50, thymidine double block
# Source text: Therefore, we have assessed the cytostatic potential of complexes 2, 3, 5, and 7, and their ability to interfere with the progression of the cell cycle using the fluorescent marker PI. Since this marker can intercalate with DNA, the measurement of the fluorescence emitted by flow cytometry makes it possible to assess the DNA content at each stage of the cell cycle (G0/G1, S, and G2/M).[67] To ensure that all the cells were in the same phase before their exposure to the complexes, a double block was carried out with thymidine, a DNA synthesis inhibitor.[67]
# HCT116DoxR cell line was seeded in 6-well plates in a density of 1×10^5 cells/mL and incubated for
# 24 h. Afterwards, the culture medium was replaced by medium with IC50 concentrations of different
# HCT116DoxR cell line was seeded in 6-well plates in a density of 1×10^5 cells/mL, incubated for 8 h in
# a humidified atmosphere at 37 °C and 5% (v/v) CO2, and later synchronized in early S-phase with a 2
# mM thymidine solution (Merck, Germany) for a 16 h period. Later, medium with thymidine was
# replaced by fresh media and, after 8 h a second block with thymidine was performed in the same
# concentrations of Cu(II) complexes. 0.1% (v/v) DMSO was used as the vehicle control while 5 μM
# After treatment, cells were incubated for 9, 12,
# [6] = system: pUC18 plasmid DNA; test: pDNA cleavage in vitro (agarose gel electrophoresis); format: biochemical, E. coli; details: for concentration at which the interaction with pDNA reaches saturation / pDNA cleavage mode: 100 ng pUC18, 24 h; for pDNA cleavage mode: 5–100 μM complex; for effect of NaN3 (singlet oxygen scavenger) on pDNA cleavage by the complex / effect of control reagent alone on pUC18: 24 h; for effect of NaN3 (singlet oxygen scavenger) on pDNA cleavage by the complex: 50 μM complex + 50 μM NaN3; for effect of control reagent alone on pUC18: TBHP 20 μM, NaN3 50 μM
# [7] = system: HCT116DoxR cells; test: Annexin V-FITC/PI apoptosis assay by flow cytometry; details: 48 h; for cells (%) early apoptosis / cells (%) late apoptosis / cells (%) necrosis / cells (%) viable / percentage of apoptosis (early + late): complexes at IC50, Dox 6 μM, cisplatin 5 μM; for fold increase in apoptotic cells, normalized to DMSO: complexes at IC50, cisplatin 5 μM
# Protocol: To evaluate the cell death mechanism involved in the cytotoxic effect of the selected complexes, a double-staining with Annexin V-FITC and PI was performed. […] The use of Annexin V conjugated with the fluorophore FITC allows the quantification of this interaction and subsequent identification of cells in apoptosis by flow cytometry. Furthermore, PI is a fluorophore that can intercalate with DNA and that can only enter the cell when the membrane is either compromised or ruptured, making it possible to identify cells undergoing late apoptosis and necrosis. Therefore, the double staining makes it possible to distinguish between viable cells (FITC^–; IP^–), those undergoing initial apoptosis (FITC^+; IP^–), those undergoing late apoptosis (FITC^+; IP^+), and those undergoing necrosis (FITC^–; IP^+).[55],[58]
# Evaluation of apoptosis induction in HCT116DoxR cell line by flow cytometry The induction of apoptosis in HCT116DoxR cell line was evaluated by flow cytometry, using the
# Annexin V-FITC Apoptosis Detection Kit (Thermo Fisher Scientific, Waltham, MA, USA). Cells
# were seeded in 6-well plates at a cell density of 1×10^5 cells/mL and incubated for 24 h. Afterwards,
# culture medium was replaced by medium with different Cu(II) complexes at their IC50 concentrations.
# After 48 h of incubation, cells were washed with PBS 1x, detached from each well with TrypLETM
# Express and washed again with PBS 1x. Cells were then resuspended in 1x annexin-binding buffer and
# incubated at rt for 15 min with Annexin V-FITC and 100 μg/mL PI.
# All samples were analysed by an Attune® Acoustic Focusing Flow Cytometer (Thermo Fischer
# Scientific, Waltham, MA, USA) and the results were processed with Attune® Cytometric software
# [8] = system: EB–ct-DNA adduct; test: Ethidium bromide displacement fluorescence assay; format: binding, calf; details: PBS; for apparent binding constant (Kapp): EB displacement, KEB = 1 × 10^7 M^–1; for Stern–Volmer quenching constant KSV: EB–ct-DNA, 0–40 μM complex
# [9] = system: HCT116DoxR spheroids; test: MTS cell viability assay in 3D HCT116DoxR spheroids; format: cell-based, human; details: 6-day-old spheroids, 48 h of exposure
# [10] = system: chicken embryos; test: Ex-ovo chick chorioallantoic membrane (CAM) assay; format: in vivo; details: IC50, vs DMSO control
# [11] = system: BAX and BCL-2; test: BAX and BCL-2 protein expression by Western Blot; format: cell-based, human; details: HCT116DoxR, 48 h, IC50; normalized to β-actin
# [12] = system: fibroblasts; test: Cell migration (wound healing) assay; format: cell-based, human; details: 24 h; complexes at IC50, Dox 0.4 μM; vs DMSO
# Source text: A wound healing assay was therefore carried out on fibroblasts to study the influence of the Cu(II) complexes on cell migration in vitro. Skin fibroblasts were the model chosen for this assay as they are essential for regenerating damage in this tissue.[85] […]
# intrinsic binding constant Kb can be obtained from the ratio of the slope to the intercept of the linear fit of the plot [DNA]/[εa−εf] versus [DNA].
# For emission quenching experiments, equimolar solution of ct-DNA and ethidium bromide (EB, Sigma Aldrich) was prepared and allowed to incubate for 2 h in the dark. The tested complexes were titrated into the formed EB–ct-DNA adduct and incubated for additional 30 min. The final concentration of the EB–ct-DNA adduct was 50 μM and the concentration of the complexes varied from 0 to 40 μM. The fluorescence spectra were recorded on FLS-980 spectrofluorometer (Edinburgh Instruments, Livingston, United Kingdom) with excitation wavelength 515 nm and emission wavelength of 620 nm. The apparent binding constant (Kapp) was calculated using the Equations : […]
# where I0 and I are the fluorescence intensity in the absence and presence of the complexes; KSV is the Stern-Volmer quenching constant; [Q] is the concentration of the complexes; [Q1/2] is the concentration of the complex causing 50% reduction in the fluorescence intensity; K = 1×107 […]
# conditions mentioned before until the presence of a confluent monolayer was detected. A scratch was made on the surface of each well using a sterile 200 μL micropipette tip and the cells were […]
# Each plate was then incubated for 24 h in the same conditions mentioned before. […]
# The width of each scratch in each image was measured via ImageJ software. […]
# The ex-ovo CAM assay was performed to evaluate the copper(II) complexes’ effect on angiogenesis, as already described in literature11,12. […] Newly formed blood vessels were manually counted via ImageJ software. […]
# All results were expressed as mean ± SEM of at least two independent biological assays, each obtained by technical duplicates, unless otherwise specified. […]
# [13] = Stability and solubility in biological medium (RPMI) by UV-vis; format: physicochemical; details: colorless RPMI, 50 μM, 37 °C
# Protocol: The stability of complexes 2, 3, 5, and 7 was assessed by UV–vis spectroscopy at 0, 24, and 48 h of incubation at 37 °C.
# In Figure S18, it is possible to observe the spectra of all Cu(II) complexes, where high-energy absorption bands correspond to π → π* and n → π* transitions with peaks in the 230–330 and 330–400 nm ranges, respectively, that are associated with the aromatic rings of terpyridines.[39],[49] Analyzing the spectra of complexes 2 and 3, it is possible to detect the existence of 3 bands (maximum ∼240, ∼ 290, and between 320 and 340 nm). […] Complex 7 only has 2 bands of maximum absorbance at 290 nm and between 320 and 340 nm.
# Nevertheless, all Cu(II) complex solutions were freshly prepared and added immediately to cells.
structure (smiles),measurement,setting,value
CCn1c2ccccc2c2cc(-c3cc(-c4ccccn4)nc(-c4ccccn4)c3)ccc21 [L8],IC50,[1],~10 µM
same,IC50,[2],0.4 ± 0.04 µM
"COc1ccc2c(OC)ccc(-c3cc(-c4ccccn4)nc(-c4ccccn4)c3)c2c1.COc1ccc2c(OC)ccc(-c3cc(-c4ccccn4)nc(-c4ccccn4)c3)c2c1.F[P-](F)(F)(F)(F)F.F[P-](F)(F)(F)(F)F.[Cl][Cu].[Cl][Cu] [complex 4, [Cu2Cl2(4′-(4,7-Dimethoxy-1-naphthyl)-terpy)2](PF6)2]",IC50,[1],2.64 ± 0.1 µM
same,IC50,[2],0.16 ± 0.01 µM
same,IC50,[3],0.15 ± 0.04 µM
same,IC50,[4],0.49 ± 0.1 µM
c1ccc(-c2cc(-c3ccco3)cc(-c3ccccn3)n2)nc1 [L5],IC50,[1],> 50 µM
same,IC50,[2],0.6 ± 0.02 µM
"CCn1c2ccccc2c2cc(-c3cc(-c4ccccn4)nc(-c4ccccn4)c3)ccc21.CCn1c2ccccc2c2cc(-c3cc(-c4ccccn4)nc(-c4ccccn4)c3)ccc21.F[P-](F)(F)(F)(F)F.F[P-](F)(F)(F)(F)F.[Cl][Cu].[Cl][Cu] [complex 8, [Cu2Cl2(4′-(N-Ethyl-9H-carbazol-3-yl)-terpy)2](PF6)2]",IC50,[1],7.36 ± 0.04 µM
same,IC50,[2],0.19 ± 0.06 µM
same,IC50,[3],0.1 ± 0.03 µM
same,IC50,[4],0.37 ± 0.06 µM
"F[P-](F)(F)(F)(F)F.F[P-](F)(F)(F)(F)F.[Cl][Cu].[Cl][Cu].c1ccc(-c2cc(-c3ccccn3)nc(-c3ccccn3)c2)nc1.c1ccc(-c2cc(-c3ccccn3)nc(-c3ccccn3)c2)nc1 [complex 7, [Cu2Cl2(4′-(2-Pyridynyl)-terpy)2](PF6)2]",cell cycle progression after 12 h,[5],delays cell cycle progression in the G2/M phase
same,cell cycle progression after 18 h,[5],delay in cycle progression in the G0/G1 phase
same,cell cycle progression after 24 h,"[5]; 24 h, complexes at IC50, cisplatin 5 μM",delay the cycle in the G2/M phase
same,concentration at which the interaction with pDNA reaches saturation,[6],100 μM
same,pDNA cleavage mode,[6],single and double strands
same,effect of NaN3 (singlet oxygen scavenger) on pDNA cleavage by the complex,[6],almost completely reversed
same,IC50,[1],16.08 ± 0.05 µM
same,IC50,[2],0.19 ± 0.01 µM
same,IC50,[3],0.23 ± 0.01 µM
same,cells (%) early apoptosis,[7],37.4 ± 7.4%
same,cells (%) late apoptosis,[7],9.0 ± 2.6%
same,cells (%) necrosis,[7],1.1 ± 0.5%
same,cells (%) viable,[7],52.5 ± 6.7%
same,percentage of apoptosis (early + late),[7],~46%
same,"fold increase in apoptotic cells, normalized to DMSO",[7],5 fold
same,apparent binding constant (Kapp),[8],1.16 × 10^6 M^–1
same,Stern–Volmer quenching constant KSV,[8],2320 M⁻¹
same,IC50,[9],30.48 ± 0.19 µM
same,formation of new blood vessels after 24 h,[10],no pro- or antiangiogenic effect
same,formation of new blood vessels after 48 h,[10],antiangiogenic effect
same,IC50,[4],1.13 ± 0.2 µM
same,expression of BAX compared to the DMSO control,[11],decreases
same,expression of BCL-2 compared to the DMSO control,[11],increases
COc1ccc2c(OC)ccc(-c3cc(-c4ccccn4)nc(-c4ccccn4)c3)c2c1 [L4],IC50,[1],13.1 ± 3.18 µM
same,IC50,[2],0.4 ± 0.25 µM
"COc1ccc(-c2cc(-c3ccccn3)nc(-c3ccccn3)c2)c2ccccc12.COc1ccc(-c2cc(-c3ccccn3)nc(-c3ccccn3)c2)c2ccccc12.F[P-](F)(F)(F)(F)F.F[P-](F)(F)(F)(F)F.[Cl][Cu+].[Cl][Cu+] [complex 3, [Cu2Cl2(4′-(4-Methoxy-1-naphthyl)-terpy)2](PF6)2]",fibroblast migration (% of remission),[12],lower compared to the positive control Dox
same,cell cycle progression after 12 h,[5],delays cell cycle progression in the G2/M phase
same,cell cycle progression after 18 h,[5],delay in cycle progression in the G0/G1 phase
same,concentration at which the interaction with pDNA reaches saturation,[6],50 μM
same,pDNA cleavage mode,[6],single strands
same,effect of NaN3 (singlet oxygen scavenger) on pDNA cleavage by the complex,[6],partially reversed
same,IC50,[1],6.24 ± 0.03 µM
same,IC50,[2],0.15 ± 0.01 µM
same,IC50,[3],0.13 ± 0.02 µM
same,cells (%) early apoptosis,[7],51.3 ± 5.7%
same,cells (%) late apoptosis,[7],14.9 ± 3.6%
same,cells (%) necrosis,[7],0.2 ± 0.2%
same,cells (%) viable,[7],33.7 ± 3.6%
same,percentage of apoptosis (early + late),[7],65 to 70%
same,"fold increase in apoptotic cells, normalized to DMSO",[7],~6.4 fold
same,apparent binding constant (Kapp),[8],3.07 × 10^6 M^–1
same,Stern–Volmer quenching constant KSV,[8],6060 M⁻¹
same,IC50,[9],6.35 ± 0.12 µM
same,formation of new blood vessels after 24 h,[10],antiangiogenic potential
same,formation of new blood vessels after 48 h,[10],greater decrease in the % of blood vessels formed
same,IC50,[4],0.66 ± 0.07 µM
same,expression of BAX compared to the DMSO control,[11],decreases
same,expression of BCL-2 compared to the DMSO control,[11],increases
same,maximum absorbances after 24 or 48 h compared to 0 h (reduction of solubility),[13],slight decrease
c1ccc(-c2cc(-c3cccc4ccccc34)cc(-c3ccccn3)n2)nc1 [L1],IC50,[1],> 50 µM
same,IC50,[2],~0.2 µM
"CC(C)(C)OO [TBHP, Tert-Butyl hydroperoxide, reference compound]",effect of control reagent alone on pUC18,[6],unable to induce pUC18 cleavage
c1ccc(-c2cc(-c3ccnc4ccccc34)cc(-c3ccccn3)n2)nc1 [L2],IC50,[1],> 50 µM
same,IC50,[2],0.4 ± 0.02 µM
"[N-]=[N+]=[N-].[Na+] [NaN3, sodium azide, reference compound]",effect of control reagent alone on pUC18,[6],no effect
"F[P-](F)(F)(F)(F)F.F[P-](F)(F)(F)(F)F.[Cl][Cu].[Cl][Cu].c1ccc(-c2cc(-c3cccc4ccccc34)cc(-c3ccccn3)n2)nc1.c1ccc(-c2cc(-c3cccc4ccccc34)cc(-c3ccccn3)n2)nc1 [complex 1, [Cu2Cl2(4′-(1-Naphthyl)-terpy)2](PF6)2]",IC50,[1],3.04 ± 0.02 µM
same,IC50,[2],0.12 ± 0.01 µM
same,IC50,[3],0.16 ± 0.01 µM
same,IC50,[4],0.8 ± 0.05 µM
c1ccc(-c2cc(-c3ccccn3)nc(-c3ccccn3)c2)nc1 [L7],IC50,[1],~50 µM
same,IC50,[2],0.5 ± 0.06 µM
